Results on one substance are retold here after US20160312284A1, “SELECT SINGLE NUCLEOTIDE POLYMORPHISMS PREDICTIVE OF RESPONSE TO GLATIRAMER ACETATE” (Teva Pharmaceutical Industries, Ltd., priority 2015, published 2016).

In assay [1] the test system is Subjects With Relapsing-Remitting Multiple Sclerosis (RRMS). Put plainly: GALA phase 3 trial (GA 40 mg three times a week vs placebo): response categories and ARR by predictive model. The format is in vivo, human. As for the experimental part:
As used herein, “GALA” is a phase 3 clinical trial entitled “A Study in Subjects With Relapsing-Remitting Multiple Sclerosis (RRMS) to Assess the Efficacy, Safety and Tolerability of Glatiramer Acetate (GA) Injection 40 mg Administered Three Times a Week Compared to Placebo (GALA).” The GALA trial has the ClinicalTrials.gov Identifier NCT01067521, and additional information about the trial can be found at clinicaltrials.gov/ct2/show/NCT01067521.
(§1) Response definitions were received from patients from two large glatiramer acetate clinical trial cohorts (GALA, FORTE) and patients were categorized as responder, non-responder, extreme-responder, or extreme non-responder according to the criteria set forth in Table 1.
(§2) To identify genetic markers associated with high response to Copaxone® comprising the following characteristics: (1) high response as measured by ARR reductions, (2) predictive, not prognostic, markers: associated with response only in Copaxone®-treated patients, and not in the placebo group, (3) markers that are confirmed in an independent cohort, and (4) a subset of GALA and FORTE studies' patients with clarly defined response phenotypes (high responders versus low responders) (FIG. 6) Patient DNA samples were genotyped for 4.3 million genetic variants (Illumina HumanOmni5 array).
(§3) Regression analysis was applied, with the threshold for distinguishing responders from non-responders was selected by analysis of receiver-operator curves. Intermediate responders were genotyped by either Illumina 5M array or focused taqman-based SNP genotyping and Sanger sequencing.

The test system of assay [2] is Relapsing-Remitting Multiple Sclerosis (RR-MS) patients. Briefly: FORTE phase 3 trial (two doses of GA): response categories and ARR by predictive model. The format is in vivo, human.
From the text: As used herein, “FORTE” is a phase 3 clinical trial entitled “Clinical Trial Comparing Treatment of Relapsing-Remitting Multiple Sclerosis (RR-MS) With Two Doses of Glatiramer Acetate (GA).” The FORTE trial has the ClinicalTrials.gov Identifier NCT00337779 and additional information, including study results can be found at clinicaltrials.gov/ct2/show/NCT00337779.
as §1, §2, §3

For assay [3], the system named is genotyped patients of the GALA and FORTE cohorts. Briefly: Combined GALA and FORTE cohorts: patient responses predicted by preliminary predictive model (model 3, threshold 0.71). The format is in vivo, human. The method, then: A predictive model was generated based on the 11 SNPs shown in tables 32 and 33 and the two Clinical co-variants shown in table 23.
Receiver Operating Characteristic (ROC) analysis was performed using the actual value (case or control) and predicted value for each sample from the multi-marker regression model (FIG. 1). For these preliminary analyses, two risk groups were defined using the predicted values from the multi-marker regression model. The predictive threshold value was set at 0.71 (termed “model 3”) based on a variety of factors after consultation with the Teva team and Teva MS clinical experts.
Ultimately, a threshold that best differentiated between responders and non-responders (minimum positive predictive value of 90% or higher) (FIG. 2), while maximizing the number of predicted responders (predicted responders >60%) (FIG. 3) was selected. This threshold also coincided with the lowest p-value of all the thresholds examined (Chi square p-value 6.1×10^−46, odds ratio 19.9) (FIG. 4). The positive predictive value (% of all predicted responders to be true responders) was 91.1%, sensitivity (% of all true responders detected) was 80.2%; specificity (% of all true non-responders classified as non-responders) was 83.1%; and the negative predictive value ([…]) was 65.9%.
While 40% of patients were classified as “predicted non-responders” with an overall response rate of 34% (FIG. 5).

The test system of a further assay is RRMS subjects. Conditions: largest controlled study, GA 20 mg; cited from earlier work.
Setting [4] is: change in ARR < -1 and new T2 lesions = 0 and relapse free.
Where [5] appears, read: change in ARR >= 0 and new T2 lesions >= 1.
[6] abbreviates: change in ARR from previous 2 years < -1.
The mark [7] stands for this setting: change in ARR from previous 2 years >= 0.

As to Glatiramer acetate, the “Extreme Responders (% of cohort)” value is “(8.5%)” in assay [1] (setting [4]) and “(16%)” in assay [2] (setting [4]). In addition, the “Extreme Non-Responders (% of cohort)” value is given as “(10%)” in assay [1] (setting [5]) and “(6%)” in assay [2] (setting [5]). In addition, the “Responders (% of cohort)” value in assay [1] (setting [6]) is given as “(26%)”; in assay [2] (setting [6]) it was “(36%)”. Moreover, the figures for the “Non-Responders (% of cohort)” value in assay [1] (setting [7]) and in assay [2] (setting [7]) were “(16%)” and “(11%)”, respectively. The “improvement in response rate, predicted responders vs overall cohort” value in assay [3] (68% vs. 91%) is 34%. Further, the “improved response rate, predicted responders vs predicted non-responders” value in assay [3] (P<10^-40) was 2.7 fold. Also, the “ARR reduced (improved), predicted responders vs overall patient cohort” value in assay [3] (human, in vivo) is 60%. Moreover, in assay [3] (human, in vivo), the “nrelapse reduced (improved), predicted responders vs overall patient cohort” value was 58%. For the same substance, the “EDSS progression delayed (improved), predicted responders vs predicted non-responders” value in assay [3] (p-value 0.00095) is 72%. Further, in assay [3] (p-value 0.043), the “T1 enhancing lesions at month 12 reduced (improved), predicted responders vs predicted non-responders” value is recorded as 47%. Besides, the “reduced EDSS progression, predicted responders vs overall cohort” value in assay [3] (p-value 0.08) is recorded as 49%. The “ARR reduced (improved), predicted responders vs predicted non-responders” value in assay [3] (p-value 2.2×10^-25) is reported as 80%. Moreover, the “nrelapse reduced (improved), predicted responders vs predicted non-responders” value in assay [3] (p-value 7.70×10^-32) is on record as 78%. Moreover, the overall response rate in assay [3] (predicted non-responders (40% of patients)) was 34%. For the same substance, the “relapse rate reduced vs placebo” value with RRMS subjects was 32%.
